Experimental findings from patent US20260274814A1, “THIENYL COMPOUNDS FOR THE TREATMENT OF A CENTRAL NERVOUS SYSTEM DISEASE OR DISORDER” (Coreterra Therapeutics, Inc., priority 2023, published 2026) are described below.

This test concerns mice. The test can be described thus: Neuropharmacological Assay (SmartCube): automated behavioral signature of compound-treated mice compared with a database of reference drug classes. The settings on record: for minimal effective dose: Mus musculus, ip. The format is in vivo. A digest of the protocol: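 Mice dosed i.p. 15 min before SmartCube testing, with compound in N-methyl-2-pyrrolidone/polyethylene glycol/propylene glycol. Video-captured behaviour is compared with a reference-drug signature database to give per-class probabilities, reported at 3.0 mg/kg. MED, from doses usually 0.3–10 mg/kg, is the lowest dose giving ≥45% total activity.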

Where [1] appears, read: dose having 45% or more total activity in SmartCube, i.p., if only one dose was tested, that dose is shown, hydrochloride.
Where [2] appears, read: probability that activity matches this class of agents, 3.0 mg/kg i.p., 15 min before test.
Where [3] appears, read: probability that activity matches this class of agents, 3.0 mg/kg i.p., 15 min before test, hydrochloride, 3 mg/kg.
Setting [4] is: minimal effective dose: dose having 45% or more total activity in SmartCube, i.p., if only one dose tested, that dose is shown, read-out: MED.
Setting [5] is: SmartCube class probability, 3.0 mg/kg i.p., 15 min before test.
[6] abbreviates: minimal effective dose: dose having 45% or more total activity in SmartCube, i.p., if only one dose was tested, that dose is shown, read-out: MED.
The mark [7] stands for this setting: SmartCube probability class, 3.0 mg/kg dose, i.p. 15 min before the behavioral test.
[8] abbreviates: SmartCube probability class, 3.0 mg/kg dose, i.p. 15 min before the behavioral test, formate salt, 3 mg/kg.
[9] abbreviates: SmartCube class probability, 3.0 mg/kg i.p., 15 min before test, hydrochloride, 3 mg/kg.

Where a name gives a salt, the structure may show the parent alone. Read-outs that look alike come from different tables or passages of the source.

`CNC1CCc2sccc2C1.Cl` (single isomer, unassigned) [Compound 12, N-methyl-4,5,6,7-tetrahydrobenzothiophen-5-amine hydrochloride]: the “MED (minimal effective dose)” value under setting [1] is recorded as 1.0 mpk. Besides, under setting [2], the AG entry is listed as “ND (^ <4%)”, the AN entry is reported as “ND (^ <4%)”, the CE entry is on record as “ND (^ <4%)” and the HL result is listed as “ND (^ <4%)”. Besides, under setting [2], the MS entry is “ND (^ <4%)”, the PS entry is listed as “ND (^ <4%)”, the SH result is given as “ND (^ <4%)” and the UK entry is “ND (^ <4%)”. Under setting [3], the AD result is “++ (≥24%)”, the AP entry is listed as “+ (≥4%)” and the AX result is “++ (≥24%)”.

As for `CNC1CCc2sc(C)c(F)c2C1` (stereo not drawn) [Compound 196, 3-fluoro-N, 2-dimethyl-4,5,6,7-tetrahydrobenzothiophen-5-amine hydrochloride], the minimal effective dose under setting [4] was found to be 3 mg/kg. In addition, under setting [5], the AD entry is reported as “ND (^ <4%)”, the AG result is “ND (^ <4%)”, the AN entry is listed as “ND (^ <4%)” and the AP result is recorded as “ND (^ <4%)”. Also, under setting [5], the AX entry was “ND (^ <4%)”, the CE entry is “ND (^ <4%)”, the HL result was “ND (^ <4%)” and the MS entry is “ND (^ <4%)”. For the same compound, under setting [5], the PS entry is “ND (^ <4%)”, the SH result is “ND (^ <4%)” and the UK entry is given as “+ (≥4%)”.

As for `CCC1(NC)CCc2sccc2C1` (single isomer, unassigned) [Compound 291, 5-ethyl-N-methyl-6,7-dihydro-4H-benzothiophen-5-amine hydrochloride], under setting [6], the minimal effective dose is greater than 3 mg/kg. Under setting [7], the AD result is “ND (^ <4%)”, the AG result is given as “ND (^ <4%)”, the AN entry was “ND (^ <4%)” and the AP entry is recorded as “ND (^ <4%)”. Also, under setting [7], the AX result is “ND (^ <4%)”, the CE entry is given as “ND (^ <4%)”, the HL result is “ND (^ <4%)” and the MS entry is “ND (^ <4%)”. Under setting [7], the PS result is “ND (^ <4%)” and the SH entry was “ND (^ <4%)”. The UK entry (SmartCube probability class, 3.0 mg/kg dose, i.p. 15 min before the behavioral test, hydrochloride, 3 mg/kg) was “+ (≥4%)”.

For `Cl.c1cc2c(s1)CC(N1CCCC1)CC2` (single isomer, unassigned) [Compound 17, 1-(4,5,6,7-tetrahydrobenzothiophen-6-yl)pyrrolidine hydrochloride], the “MED (minimal effective dose)” value under setting [1] came to 1.0 mpk. Besides, under setting [2], the AG entry was “ND (^ <4%)”, the AN entry is given as “ND (^ <4%)”, the CE entry is “ND (^ <4%)” and the HL result is “ND (^ <4%)”. Under setting [2], the MS entry is on record as “ND (^ <4%)”, the PS entry is listed as “ND (^ <4%)”, the SH entry is given as “ND (^ <4%)” and the UK entry is listed as “ND (^ <4%)”. Under setting [3], the AD entry is reported as “ND (^ <4%)”, the AP result is reported as “+++ (≥49%)” and the AX entry is “++++ (≥74%)”.

Take `CNC1COc2sccc2C1` (single isomer, unassigned) [Compound 293, N-methyl-3,4-dihydro-2H-thieno[2,3-b]pyran-3-amine formate salt]: under setting [6], the minimal effective dose was less than 3 mg/kg. Also, under setting [7], the AD result was “ND (^ <4%)”, the AG entry is listed as “ND (^ <4%)”, the AN entry is given as “ND (^ <4%)” and the AX result is on record as “ND (^ <4%)”. In addition, under setting [7], the CE entry is reported as “ND (^ <4%)”, the HL result is “ND (^ <4%)”, the MS result is reported as “ND (^ <4%)” and the PS entry was “ND (^ <4%)”. Also, under setting [7], the SH result is on record as “ND (^ <4%)”. Further, under setting [8], the AP result was “++++ (≥74%)” and the UK entry is “ND (^ <4%)”.

`CNC1CCc2scc(Br)c2C1` (stereo not drawn) [Compound 108, 3-bromo-N-methyl-4,5,6,7-tetrahydrobenzothiophen-5-amine hydrochloride]: the minimal effective dose (dose having 45% or more total activity in SmartCube, i.p., if only one dose was tested, that dose is shown, read-out: MED (minimal effective dose)) was less than 3 mg/kg. Besides, under setting [2], the AD result is “ND (^ <4%)”, the AG entry is “ND (^ <4%)”, the AN entry is reported as “ND (^ <4%)” and the AP entry was “++++ (≥74%)”. In addition, under setting [2], the AX result is “ND (^ <4%)”, the CE result is “ND (^ <4%)”, the HL result is “ND (^ <4%)” and the MS result was “ND (^ <4%)”. In addition, under setting [2], the PS entry was “ND (^ <4%)”, the SH result is “ND (^ <4%)” and the UK result was “ND (^ <4%)”.

As for `CNC1COc2c(sc(C)c2C)C1` (stereo not drawn) [Compound 202, N, 2,3-trimethyl-6,7-dihydro-5H-thieno[3,2-b]pyran-6-amine hydrochloride], the minimal effective dose under setting [4] turned out to be 3 mg/kg. Under setting [5], the AD entry is “+ (≥4%)”, the AG result is listed as “ND (^ <4%)”, the AN entry is given as “ND (^ <4%)” and the AP result is on record as “++ (≥24%)”. Also, under setting [5], the AX result is on record as “++ (≥24%)”, the CE result is recorded as “ND (^ <4%)”, the HL entry is reported as “ND (^ <4%)” and the MS entry was “ND (^ <4%)”. In addition, under setting [5], the PS entry is “ND (^ <4%)”, the SH entry was “ND (^ <4%)” and the UK result is recorded as “ND (^ <4%)”.

On to `CNC1CCc2sc(C)cc2C1` (single isomer, unassigned) [Compound 223, N, 2-dimethyl-4,5,6,7-tetrahydrobenzothiophen-5-amine hydrochloride], for which, under setting [4], the minimal effective dose was greater than 3 mg/kg. Also, under setting [5], the AD entry is recorded as “ND (^ <4%)”, the AG entry was “ND (^ <4%)”, the AN entry is “ND (^ <4%)” and the AX result is listed as “ND (^ <4%)”. Further, under setting [5], the CE entry was “ND (^ <4%)”, the HL entry was “ND (^ <4%)”, the MS entry is listed as “ND (^ <4%)” and the PS entry was “ND (^ <4%)”. The SH result under setting [5] is “ND (^ <4%)”. Also, under setting [9], the AP result is “ND (^ <4%)” and the UK result is listed as “++ (≥24%)”.

`CNC1CCc2csc(C)c2C1.Cl` (single isomer, unassigned) [Compound 41, N, 3-dimethyl-4,5,6,7-tetrahydro-2-benzothiophen-5-amine hydrochloride]: the “MED (minimal effective dose)” value (dose having 45% or more total activity in SmartCube, i.p., if only one dose was tested, that dose is shown) came to 1.0 mpk. Under setting [2], the AG result is “ND (^ <4%)”, the AN entry was “ND (^ <4%)”, the AP entry is given as “++ (≥24%)” and the CE entry is given as “ND (^ <4%)”. Under setting [2], the HL entry is given as “ND (^ <4%)”, the MS result is listed as “ND (^ <4%)”, the PS result was “ND (^ <4%)” and the SH result is reported as “ND (^ <4%)”. Besides, under setting [2], the UK entry is “ND (^ <4%)”. Further, under setting [3], the AD entry is “+++ (≥49%)” and the AX entry is “ND (^ <4%)”.

Regarding `CN(C)C1CCc2ccsc2C1.Cl` (single isomer, unassigned) [Compound 16, N,N-dimethyl-4,5,6,7-tetrahydrobenzothiophen-6-amine hydrochloride], the “MED (minimal effective dose)” value under setting [1] was 1.0 mpk. Under setting [2], the AD entry was “ND (^ <4%)”, the AG entry is recorded as “ND (^ <4%)”, the AN result is recorded as “ND (^ <4%)” and the HL entry was “ND (^ <4%)”. Also, under setting [2], the MS entry is “ND (^ <4%)”, the PS entry was “ND (^ <4%)”, the SH entry is on record as “ND (^ <4%)” and the UK entry is listed as “ND (^ <4%)”. Besides, under setting [3], the AP result was “ND (^ <4%)”, the AX entry is given as “++++ (≥74%)” and the CE result is recorded as “ND (^ <4%)”.

In the case of `CNC1(C)CCc2sccc2C1` (single isomer, unassigned) [Compound 179, N, 5-dimethyl-6,7-dihydro-4H-benzothiophen-5-amine hydrochloride], under setting [5], the AG result is listed as “ND (^ <4%)”, the AP result is “ND (^ <4%)”, the AX result is given as “ND (^ <4%)” and the CE entry was “ND (^ <4%)”. Moreover, under setting [5], the HL entry was “ND (^ <4%)”, the MS entry was “ND (^ <4%)”, the SH entry is reported as “ND (^ <4%)” and the UK result was “ND (^ <4%)”. Further, under setting [9], the AD result is recorded as “+++ (≥49%)”, the AN entry is listed as “+ (≥4%)” and the PS entry is listed as “+ (≥4%)”. The compound also came in with an MED (minimal effective dose: dose having 45% or more total activity in SmartCube, i.p., if only one dose tested, that dose is shown, hydrochloride) of 3 mpk.

For `CNC1CCc2cc(F)sc2C1` (single isomer, unassigned) [Compound 81, 2-fluoro-N-methyl-4,5,6,7-tetrahydrobenzothiophen-6-amine hydrochloride], the “MED (minimal effective dose)” value under setting [1] was determined as 1 mpk. Besides, under setting [2], the AG result is “ND (^ <4%)”, the AN entry was “ND (^ <4%)”, the CE entry is “ND (^ <4%)” and the HL result is “ND (^ <4%)”. In addition, under setting [2], the MS result is on record as “ND (^ <4%)”, the PS result was “ND (^ <4%)”, the SH result is reported as “ND (^ <4%)” and the UK result is “ND (^ <4%)”. Also, under setting [3], the AD result is reported as “ND (^ <4%)”, the AP result is recorded as “++++ (≥74%)” and the AX entry is “ND (^ <4%)”.
